Structures are written as SMILES.

Experiment [1] has as its system white blood cell (WBC) count. How it is done: Eleven human patients having initial white blood cell counts of 4,000-6,500 cells/mm^3 were used in the study. An intravenous dosing solution of AMD3100 (i.e., 1,1′-[1,4-phenylene-bis(methylene)]-bis-1,4,8,11-tetraazacyclotetradecane) were prepared from a stock solution which is a 1 mg/ml 1:10 dilution of a concentrate in 0.9% saline (normal saline) under sterile conditions. Aliquots from this stock solution were added to 50-ml bags of 0.9% saline for intravenous injection in amounts to achieve the desired dosage levels (10 μg/kg-80 μg/kg).
The subjects described in this example already contained an indwelling peripheral intravenous catheter. The prescribed amount of AMD3100 was administered over 15 minutes by intravenous fusion in a single dose. Blood samples were obtained prior to the dose, and at various times up to 24 hours after dose administration.
Eleven human subjects received intravenous administration of AMD-3100 at doses 10, 20, 40, and 80 μg/kg. Five subjects also received a single subcutaneous injection of AMD-3100 at doses of 40 and 80 μg/kg. Three patients were administered dosages of 10 μg/kg (open circles); 3 patients were administered dosages of 20 μg/kg (solid circles); 3 patients were administered 40 μg/kg (open triangles); and 2 patients were administered 80 μg/kg (closed triangles).

Experiment [2] deals with white blood cell (WBC) count. How it is done:
Eight patients received AMD-3100 at infusion dose rates of 2.5 μg/kg/hr (patients 1-4) and 5.0 μg/kg/hr (patients 5-8).
The source holds these as a separate data set.

`c1cc(CN2CCCNCCNCCCNCC2)ccc1CN1CCCNCCNCCCNCC1` [AMD3100, 1,1′-[1,4-phenylene-bis(methylene)]-bis-1,4,8,11-tetraazacyclotetradecane]: the “effect on white blood cell count after administration” value in experiment [1] (all 11 patients, 10, 20, 40, 80 μg/kg i.v. over 15 minutes, single dose, over the succeeding 5-10 hours, tapered off after about 24 hours, not returning to original level) was “marked increase in white blood cell count”. Also, in experiment [1] (one patient who received 80 μg/kg i.v., from 6,000 cells/mm^3 before dose), the “white blood cell count, peak value” was 19,000 cells/mm^3. In addition, the “white blood cell count after increase” value in experiment [1] (patient showing the least response, 20 μg/kg i.v., from about 6,300 cells/mm^3) was “about 9,000 cells/mm^3”. Besides, in experiment [2] (continuous infusion 2.5 or 5.0 μg/kg/hr for up to 10 days, HIV-infected patients), the “time for WBC counts to return to baseline after discontinuation of the infusion” value came to 7 days. Further, in experiment [2] (following single dose or with continuous infusion), the “ability to enhance WBC count in human patients” value is “consistently able to enhance WBC count”.

These data come from US6670354B2, “Methods to enhance white blood cell count” (AnorMed, Inc., priority 1999, dated 2003).
